4 compounds from PubChem BioAssay AID1845209 (Molecular Pharmacology Branch, DTP, NCI, 2023) can be followed below.

Several values for one entry are separate records, joined by “and”; a condition that tells them apart may be missing. Identical values can stand only once.

Usually IC50 stands for the concentration needed to halve the response being measured. In general, viability, T/C refers to the ratio of treated to control.

The subject of this assay is NCI-H211 tumor spheroids, viability percent test/control. Briefly: Anticancer human tumor NCI-H211 cell line growth inhibition.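 On all read-outs here: spheroids exposed to agents for seven days before readout.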 As to conditions: spheroids with HUVEC and MSC; for viability, T/C: stronger effect = lower value. In outline: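 Complex spheroids of malignant cells with endothelial cells and mesenchymal stem cells; agents alone or combined, from near clinical Cmax (or 10 microM if unknown) down in half-log steps, 0.25% DMSO final.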

On to `COc1ccc([C@@H](O)c2cc(-c3ncnc4cc(N5CCOCC5)ccc34)c(F)cc2Cl)nn1` + CC[C@@]1(O)C(=O)OCc2c1cc1n(c2=O)Cc2cc3c(CN(C)C)c(O)ccc3nc2-1, for which the IC50 reads like this: (curve of first compound, second compound 0.003 µM) 3600 nM; (curve of first compound, second compound 0.00949 µM) under 31.6 nM; (curve of first compound, second compound 0.03 µM) under 31.6 nM; (curve of first compound, second compound 0.0949 µM) under 31.6 nM; (curve of first compound, second compound 0.3 µM) under 31.6 nM. The viability, T/C (second compound 0.003 µM, first compound 0.0316 µM) was 112%; the viability, T/C (second compound 0.003 µM, first compound 0.1 µM) is 109%; the viability, T/C (second compound 0.003 µM, first compound 0.316 µM) was 109%; the viability, T/C (second compound 0.003 µM, first compound 1 µM) is 80.8%; the viability, T/C (second compound 0.003 µM, first compound 3.16 µM) was 57.8%; the viability, T/C (second compound 0.003 µM, first compound 10 µM) was 5.72%. Further, the viability, T/C reads like this: (second compound 0.00949 µM, first compound 0.0316 µM) 18.5%; (second compound 0.00949 µM, first compound 0.1 µM) 19%; (second compound 0.00949 µM, first compound 0.316 µM) 34.5%; (second compound 0.00949 µM, first compound 1 µM) 10.9%; (second compound 0.00949 µM, first compound 3.16 µM) 4.32%; (second compound 0.00949 µM, first compound 10 µM) 1.55%. Also, the viability, T/C runs as follows: (second compound 0.03 µM, first compound 0.0316 µM) 0.99%; (second compound 0.03 µM, first compound 0.1 µM) 1.23%; (second compound 0.03 µM, first compound 0.316 µM) 0.9%; (second compound 0.03 µM, first compound 1 µM) 0.66%; (second compound 0.03 µM, first compound 3.16 µM) 0.4%; (second compound 0.03 µM, first compound 10 µM) 0.33%. Moreover, the viability, T/C by setting is: (second compound 0.0949 µM, first compound 0.0316 µM) 0.86%; (second compound 0.0949 µM, first compound 0.1 µM) 0.83%; (second compound 0.0949 µM, first compound 0.316 µM) 0.77%; (second compound 0.0949 µM, first compound 1 µM) 1.43%; (second compound 0.0949 µM, first compound 3.16 µM) 0.37%; (second compound 0.0949 µM, first compound 10 µM) 0.32%. The viability, T/C reads like this: (second compound 0.3 µM, first compound 0.0316 µM) 0.92%; (second compound 0.3 µM, first compound 0.1 µM) 1.06%; (second compound 0.3 µM, first compound 0.316 µM) 0.96%; (second compound 0.3 µM, first compound 1 µM) 0.94%; (second compound 0.3 µM, first compound 3.16 µM) 1.01%; (second compound 0.3 µM, first compound 10 µM) 0.26%.

As for `COc1cc2c(cc1O)CCNC21CSC2c3c(OC(C)=O)c(C)c4c(c3C(COC1=O)N1C(O)C3Cc5cc(C)c(OC)c(O)c5C(C21)N3C)OCO4` (stereo unspecified), the viability, T/C is 21.3% [middle of 10 runs] (compound 94.9 pM), 0.79% [middle of 8 runs] (compound 0.0003 µM), 0.7% [middle of 9 runs] (compound 0.000949 µM) and 0.13% [middle of 6 runs] (compound 0.003 µM). Besides, under “compound alone, run of 12/16/2019”, the IC50 is 0.0665 nM and 0.0583 nM and 0.0631 nM.

Take `CC1COCCN1c1cc(-c2ccnn2C)c2ccnc(-c3ccn[nH]3)c2n1` (stereo unspecified): the viability, T/C is 0.66% and 1.94% and 4.83% (compound 0.1 µM); 0.63% and 0.89% and 0.78% (compound 0.316 µM); 0.57% and 0.81% and 0.58% (compound 1 µM); 0.43% and 0.84% and 0.58% (compound 3.16 µM); 0.61% and 1.42% and 0.85% (compound 10 µM). Also, for the setting “curve of compound”, the IC50 was under 31.6 nM.

Consider `Cn1ncnc1[C@H]1c2n[nH]c(=O)c3cc(F)cc(c23)N[C@@H]1c1ccc(F)cc1` + Cn1nnc2c(C(N)=O)ncn2c1=O, for which the IC50 by setting is: (curve of first compound, second compound 1 µM) under 9.49 nM; (curve of first compound, second compound 3.16 µM) under 9.49 nM; (curve of first compound, second compound 10 µM) under 9.49 nM; (curve of first compound, second compound 31.6 µM) under 9.49 nM; (curve of first compound, second compound 100 µM) under 9.49 nM. The viability, T/C is 3.46% (second compound 1 µM, first compound 0.00949 µM); 3.69% (second compound 1 µM, first compound 0.03 µM); 2.71% (second compound 1 µM, first compound 0.0949 µM); 3.04% (second compound 1 µM, first compound 0.3 µM); 3.81% (second compound 1 µM, first compound 0.949 µM); 3.16% (second compound 1 µM, first compound 3 µM). The viability, T/C is, setting by setting: (second compound 3.16 µM, first compound 0.00949 µM) 3.37%; (second compound 3.16 µM, first compound 0.03 µM) 3.4%; (second compound 3.16 µM, first compound 0.0949 µM) 3.93%; (second compound 3.16 µM, first compound 0.3 µM) 3.87%; (second compound 3.16 µM, first compound 0.949 µM) 3.65%; (second compound 3.16 µM, first compound 3 µM) 3.16%. The viability, T/C was 3.37% (second compound 10 µM, first compound 0.00949 µM); 3.82% (second compound 10 µM, first compound 0.03 µM); 3.49% (second compound 10 µM, first compound 0.0949 µM); 3.08% (second compound 10 µM, first compound 0.3 µM); 3.95% (second compound 10 µM, first compound 0.949 µM); 3.46% (second compound 10 µM, first compound 3 µM). The viability, T/C reads like this: (second compound 31.6 µM, first compound 0.00949 µM) 3.2%; (second compound 31.6 µM, first compound 0.03 µM) 3.45%; (second compound 31.6 µM, first compound 0.0949 µM) 3.47%; (second compound 31.6 µM, first compound 0.3 µM) 3.72%; (second compound 31.6 µM, first compound 0.949 µM) 3.28%; (second compound 31.6 µM, first compound 3 µM) 3.57%. Further, the viability, T/C is 2.87% (second compound 100 µM, first compound 0.00949 µM); 3.97% (second compound 100 µM, first compound 0.03 µM); 3.4% (second compound 100 µM, first compound 0.0949 µM); 3.21% (second compound 100 µM, first compound 0.3 µM); 3.43% (second compound 100 µM, first compound 0.949 µM); 3.17% (second compound 100 µM, first compound 3 µM).
